Data on twelve molecules can be found in patent US11590116B2 (THERAVANCE BIOPHARMA R&D IP, LLC, priority 2019, dated 2023).

The target of assay [1] is T1, recombinant human ALK5 (TGF-βR1) protein (Homo sapiens, UniProt P36897).
T1 construct: purchased Life Technologies PR9075A
T1 sequence (P36897 34-503): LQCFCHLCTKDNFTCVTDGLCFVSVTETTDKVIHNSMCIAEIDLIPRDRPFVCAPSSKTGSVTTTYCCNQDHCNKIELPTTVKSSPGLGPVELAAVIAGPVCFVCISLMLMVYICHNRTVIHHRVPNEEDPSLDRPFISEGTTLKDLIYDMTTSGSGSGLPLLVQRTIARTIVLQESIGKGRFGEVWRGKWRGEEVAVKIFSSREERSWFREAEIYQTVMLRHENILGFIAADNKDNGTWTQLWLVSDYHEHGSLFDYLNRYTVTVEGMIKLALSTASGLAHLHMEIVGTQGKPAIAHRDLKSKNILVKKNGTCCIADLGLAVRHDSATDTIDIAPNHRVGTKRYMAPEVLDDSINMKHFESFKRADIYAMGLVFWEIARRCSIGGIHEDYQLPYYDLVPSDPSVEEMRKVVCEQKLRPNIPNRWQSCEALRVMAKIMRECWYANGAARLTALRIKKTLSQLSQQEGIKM
Put plainly: Biochemical ALK5 (TGF-βR1) assay to measure pKi (LANCE Ultra ULight kinase assay). The following applies: apparent pKi from pIC50 by Cheng-Prusoff, read-out: ALK5 pKi (converted). An outline of the steps:
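Compounds (10 μM to 25 pM) were preincubated 60 min at room temperature with enzyme, then reactions were started with ATP (125 μM stock, 5× final) and run 60 min at 37 °C. EDTA-containing Eu-anti-phospho-Topo IIα (Thr1342) antibody stopped the reaction; TR-FRET read at 665 nm. pIC50 from 4-parameter fit, converted to pKi via Cheng-Prusoff.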

Assay [2] relates to TGF-β-stimulated SMAD3 phosphorylation in BEAS-2B cells. Put plainly: Cellular ALK5 potency assay, inhibition of TGF-β stimulated pSMAD3 formation in BEAS-2B cells. In kind it is cell-based. The settings on record: Homo sapiens; inhibition of TGF-β stimulated pSMAD3 formation, BEAS-2B cells; read-out: BEAS2B pIC50 (converted). An outline of the steps: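 BEAS-2B human lung epithelial cells pre-treated 1 h at 37° C with compound in HBSS/25 mM HEPES/1% BSA, then stimulated 30 min with 10 ng/mL TGF-β (final). Lysates assayed for pSMAD3 by AlphaLISA; pIC50 from dose-dependent change versus stimulated untreated cells.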

Some results are limits rather than exact numbers.

In the case of `Cc1cccc(-c2[nH]cnc2-c2ccc3ncc(-c4nc(C(=O)OCCNC5CNC5)cs4)cc3c2)n1` [Compound 1254, 2-(azetidin-3-ylamino)ethyl 2-[6-[5-(6-methyl-2-pyridyl)-1H-imidazol-4-yl]-3-quinolyl]thiazole-4-carboxylate], the Ki in assay [1] was less than 0.0316 nM. Moreover, the IC50 in assay [2] is 200 to 1260 nM.

As to `Cc1cccc(-c2[nH]cnc2-c2ccc3ncc(N4CCC5(CC4)CNC5)cc3c2)n1` [Compound 206, 3-(2,7-diazaspiro [3.5]nonan-7-yl)-6-[5-(6-methyl-2-pyridyl)-1H-imidazol-4-yl]quinoline], the Ki in assay [1] was 0.0398 to 0.316 nM. The IC50 in assay [2] is 25.1 to 158 nM.

Regarding `Cc1nc(-c2[nH]cnc2-c2ccc3ncc(-c4cnn(C5CCCNC5)c4)cc3n2)ccc1F` (stereo not drawn) [Compound 413, 2-[5-(5-fluoro-6-methyl-2-pyridyl)-1H-imidazol-4-yl]-7-[1-(3-piperidyl)pyrazol-4-yl]-1,5-naphthyridine], the Ki in assay [1] is 0.0398 to 0.316 nM. Also, in assay [2], the IC50 was 25.1 to 158 nM.

For the molecule `CNCCn1cc(-c2cnc3ccc(-c4nn[nH]c4-c4cccc(C)n4)cc3c2)cn1` [Compound 125, N-methyl-2-(4-(6-(5-(6-methylpyridin-2-yl)-1H-1,2,3-triazol-4-yl)quinolin-3-yl)-1H-pyrazol-1-yl)ethan-1-amine], the Ki in assay [1] is less than 0.0316 nM. Moreover, the IC50 in assay [2] was 25.1 to 158 nM.

Consider `Cc1cccc(-c2n[nH]cc2-c2ccc3ncc(Nc4ccc(N5CCNCC5)cc4)cc3c2)n1` [Compound 488, 6-[3-(6-methyl-2-pyridyl)-1H-pyrazol-4-yl]-N-(4-piperazin-1-ylphenyl)quinolin-3-amine], for which the Ki in assay [1] was 0.0398 to 0.316 nM. For the same molecule, the IC50 in assay [2] was 25.1 to 158 nM.

Take `Cc1cccc(-c2n[nH]cc2-c2ccc3ncc(N4CCN(CCN(C)C)CC4)cc3n2)n1` [Compound 292, N,N-dimethyl-2-[4-[6-[3-(6-methyl-2-pyridyl)-1H-pyrazol-4-yl]-1,5-naphthyridin-3-yl]piperazin-1-yl]ethanamine]: the Ki in assay [1] was less than 0.0316 nM. In addition, the IC50 in assay [2] was 25.1 to 158 nM.

As to `Cc1cccc(-c2[nH]cnc2-c2ccc3ncc(-c4cncc(C(=O)OCC5CNC5)c4)cc3c2)n1` [Compound 665, azetidin-3-ylmethyl 5-[6-[5-(6-methyl-2-pyridyl)-1H-imidazol-4-yl]-3-quinolyl]pyridine-3-carboxylate], in assay [1], the Ki is 0.0398 to 0.316 nM. In addition, the IC50 in assay [2] was 200 to 1260 nM.

Take `Cc1cccc(-c2n[nH]cc2-c2ccc3ncc(N(C)CCCN4CCOCC4)cc3n2)n1` [Compound 506, N-methyl-6-[3-(6-methyl-2-pyridyl)-1H-pyrazol-4-yl]-N-(3-morpholinopropyl)-1,5-naphthyridin-3-amine]: in assay [1], the Ki was 0.0398 to 0.316 nM. Besides, the IC50 in assay [2] was 25.1 to 158 nM.

As for `Cc1cccc(-c2n[nH]cc2-c2ccc3nccc(C(=O)NCCN4CCOCC4)c3n2)n1` [Compound 802, 6-[3-(6-methyl-2-pyridyl)-1H-pyrazol-4-yl]-N-(2-morpholinoethyl)-1,5-naphthyridine-4-carboxamide], the Ki in assay [1] is 0.0398 to 0.316 nM. Also, in assay [2], the IC50 was 200 to 1260 nM.

Turning to `Cc1cccc(-c2[nH]cnc2-c2ccc3ncc(C4=CCC5(CCNC(=O)C5)CC4)cc3c2)n1` (stereo not drawn) [Compound 1206, 9-[6-[5-(6-methyl-2-pyridyl)-1H-imidazol-4-yl]-3-quinolyl]-3-azaspiro[5.5]undec-9-en-4-one], the Ki in assay [1] is less than 0.0316 nM. Moreover, the IC50 in assay [2] is 25.1 to 158 nM.

Consider `Cc1cccc(-c2[nH]nnc2-c2ccc3ncc(N4CCCNCC4)cc3n2)n1` [Compound 557, 7-(1,4-diazepan-1-yl)-2-[5-(6-methyl-2-pyridyl)-1H-triazol-4-yl]-1,5-naphthyridine], for which the Ki in assay [1] was 3.98 to 31.6 nM. In addition, the IC50 in assay [2] was 1580 to 10000 nM.

Consider `Cc1nc(-c2[nH]cnc2-c2ccc3ncc(NCCN4CCCC4)cc3n2)ccc1F` [Compound 568, 6-[5-(5-fluoro-6-methyl-2-pyridyl)-1H-imidazol-4-yl]-N-(2-pyrrolidin-1-ylethyl)-1,5-naphthyridin-3-amine], for which the Ki in assay [1] was 0.0398 to 0.316 nM. Further, the IC50 in assay [2] was 25.1 to 158 nM.
